Numbering of substitutions follows the chain as printed. Like-named read-outs stand apart in the source and are kept apart here.
Assays:
Assay in all cases: Inhibition of 2-HG production in IDH2 mutant U-87 MG cells
Assay type in all cases: cell-based
IDH2 R172W = molecular target: T1, IDH2 R172W (Homo sapiens, UniProt P48735, R172W); conditions: read-out: Relative IC50 (nM) Mean, inhibition of 2-HG production
T1 construct: expressed in transfected cells; host or cells: U-87 MG
T1 sequence (P48735 40-452 R172W): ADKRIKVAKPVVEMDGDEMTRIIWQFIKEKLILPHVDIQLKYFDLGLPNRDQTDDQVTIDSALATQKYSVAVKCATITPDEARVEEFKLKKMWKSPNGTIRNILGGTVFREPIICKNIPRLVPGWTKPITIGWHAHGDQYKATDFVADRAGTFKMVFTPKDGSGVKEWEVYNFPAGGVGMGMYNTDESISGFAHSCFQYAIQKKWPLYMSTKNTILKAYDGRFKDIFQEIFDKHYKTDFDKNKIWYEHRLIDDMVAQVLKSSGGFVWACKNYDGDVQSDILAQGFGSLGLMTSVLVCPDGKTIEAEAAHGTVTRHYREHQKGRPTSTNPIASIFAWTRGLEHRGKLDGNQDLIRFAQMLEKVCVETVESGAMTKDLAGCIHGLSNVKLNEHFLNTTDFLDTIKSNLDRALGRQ
Method: (§1) Compounds and Formulation. Compound A may be synthesized as described in WO/18/111707. Compound A is prepared as a 20 mM stock in 100% DMSO (dimethyl sulfoxide) (Sigma, D2438) and diluted serially in 100% DMSO to achieve the desired concentrations. DMSO preparations are further diluted with cell culture media prior to addition in the assay.
(§2) Cell lines. U-87 MG cells (ATCC, HTB-14) are cultured and assayed in MEM (Gibco, 11095) with 2 mM GlutaMAX (Gibco, 35050), 1 mM Pyruvate (Gibco, 11360), 0.1 mM NEAA ((Non-essential amino acid) Gibco, 11140) and 10% dialyzed FBS (Fetal bovine serum) (Gibco, 26400).
(§3) Cell-based inhibition assays. Cell-based assays are performed by measuring 2-HG in U-87 MG cells in which IDH2 mutations are expressed.
(§4) DNA constructs encoding IDH2 mutations are introduced into U-87 MG cells using transfection (Promega FuGENE HD, E2311) or lentiviral transduction, and the IDH2-mutant expressing cell lines are selected using blasticidin (5 μg/ml) or puromycin (1 μg/ml). Second site mutations (Q316E, I319M, P167R, and G260A) are evaluated in cis (same monomer as driver mutation within dimer) or in trans (opposite monomer from driver mutation in dimer). For compound treatments, 12,500 or 50,000 cells per well in culture medium (150 μl or 100 μl, respectively) are plated in 96 well cell culture plates (Falcon, 353377) 2 hrs prior to treatment. Cells are treated with serial dilutions of compound A in standard growth media. Plates are incubated in a mammalian cell culture incubator (humidified, 37° C., 5% CO2) for 16 or 72 hrs. Following the incubation period, the media is aspirated and cell extracts are prepared by addition of ice-cold 80% methanol/20% water (100 μL) containing liquid chromatography-mass spectrometry (LC-MS) internal standards (1 μM ^13C4 α-KG and ^13C5 2-HG) per well for ion pairing LC-MS method. 96-well sample plates are then sealed, shaken at 450 rpm for 10 min, and then placed at −20° C. and stored until LC-MS analysis.
(§5) LC-MS metabolite analysis of conditioned media and cell lysates. The effect of inhibitors on the concentrations of 2-HG are determined by LC-MS analysis of cell lysates using an ion-pairing method as described below.
(§6) Calibration curves are prepared by spiking 2-HG and α-KG into 80% methanol/20% water containing LC-MS internal standards (1 μM ^13C4 α-KG and 1 μM ^13C5 2-HG). The quantitation of 2-HG and α-KG is accomplished using an AB Sciex 6500 mass spectrometer with an Electrospray Ionization (ESI) probe and interfaced with an Ultra Performance Liquid Chromatography (UHPLC) system in the negative multiple-reaction monitoring (MRM) mode. The UHPLC system consists of an Agilent 1290 binary pump, thermostatted column compartment (TCC), and sampler. The injection volume is 1 μL for cell culture extracts. The extracts are chromatographically resolved using a Hypercarb column, 2.1×20 mm, […] Javelin HTS (Thermo Scientific, PN: 35005-022135). Mobile phase A is water/10 mM tributylamine/15 mM acetic acid. Mobile phase B is acetonitrile/20 mM tributylamine/30 mM acetic acid. The solvent flow rate is 1.0 mL/min. The isocratic condition is kept at 26% mobile phase B. The valve, sample loop, and needle are washed with 50% acetonitrile: 50% methanol for 20 seconds. The column temperature is kept at 55° C. Calibration curves are calculated by least-square linear regression with 1/x weighting. 2-HG and α-KG are quantified using standard curve and ratio of the peak area of analytes to internal standard. Data analysis is performed using MultiQuant 3.0 (AB Sciex). The raw data are exported to Microsoft Excel spreadsheets.
(§7) Determination of IC50 Curves. IC50 curves for each compound are obtained using four parameter data fitting analysis in GraphPad/Prism software.

IDH2 R140L_Q316E cis = molecular target: T2, IDH2 R140L_Q316E cis (Homo sapiens, UniProt P48735, Q316E/R140L); conditions: 16 hours incubation, 50K cells/well, 100 μl media/well, read-out: Relative IC50 (nM) Mean, inhibition of 2-HG production
T2 construct: expressed in transfected cells; host or cells: U-87 MG
T2 sequence (P48735 40-452 R140L/Q316E): T1 sequence (P48735 40-452 R172W) with R101L, W133R, Q277E
Method: as §1, §2, §3, §4, §5, §6, §7

IDH2 R140L = molecular target: T3, IDH2 R140L (Homo sapiens, UniProt P48735, R140L); conditions: 16 hours incubation, 50K cells/well, 100 μl media/well, read-out: Relative IC50 (nM) Mean, inhibition of 2-HG production
T3 construct: expressed in transfected cells; host or cells: U-87 MG
T3 sequence (P48735 40-452 R140L): T1 sequence (P48735 40-452 R172W) with R101L, W133R
Method: as §1, §2, §3, §4, §5, §6, §7

## C=CC(=O)N1CCN([C@@H](CC2CC2)c2ccc([C@H](C)Nc3ncc4c(n3)N(CC)C(=O)OC4)cc2)CC1 [Compound A, 7-[[(1S)-1-[4-[(1S)-2-cyclopropyl-1-(4-prop-2-enoylpiperazin-1-yl)ethyl]phenyl]ethyl]amino]-1-ethyl-4H-pyrimido[4,5-d][1,3]oxazin-2-one]
IDH2 R172W; 16 hours incubation, 50K cells/well, 100 μl media/well
  IC50: 336 nM
IDH2 R172W; 72 hours incubation, 12.5K cells/well
  IC50: 47 nM
IDH2 R140L_Q316E cis
  IC50: 145 nM
IDH2 R140L
  IC50: 243 nM
